Measured values taken from patent publication US10273305B2, “Bispecific CXCR4-CD4 polypeptides with potent anti-HIV activity” (Ablynx N.V., priority 2015, dated 2019).
“And” between values parts separate entries of the source, which are not always exact repeats. Equal values may be shown once. Read-outs that look alike come from different tables or passages of the source.

How the values were obtained:
[1] = system: dual-tropic R5/X4 HIV-1 HE; test: HIV-1 HE infection of PBMCs, p24; assay type: cell-based; details: Human immunodeficiency virus 1, PBMC, read-out: IC50 PBMC HE R5/X4 n = 9
[2] = system: HIV-1 CM237 clinical isolate (clade B); test: HIV-1 CM237 infection of PBMCs, p24; assay type: cell-based; details: Human immunodeficiency virus 1; PBMC, average 2 donors
[3] = system: HIV-1 CI#17 clinical isolate (clade B); test: HIV-1 CI#17 infection of PBMCs, p24; assay type: cell-based; details: Human immunodeficiency virus 1; PBMC, average 2 donors
[4] = system: HIV-1 NL4.3 281F12-resistant virus; test: microbe, parasite or virus in culture; assay type: cell-based
[5] = system: dual-tropic (R5/X4) HIV-1 strain HE; test: microbe, parasite or virus in culture; details: Human immunodeficiency virus 1, MT4, read-out: IC50 MT-4 HE R5/X4 n = 3
AMD3100 resistant virus = test: microbe, parasite or virus in culture; assay type: cell-based, HIV-1; details: Human immunodeficiency virus 1, MT4, read-out: IC50 MT-4 AMD-3100 res.
[6] = system: HIV-1 NL4.3 3F11-resistant virus; test: microbe, parasite or virus in culture; assay type: cell-based
[7] = system: CXCL-12 res. HIV-1 NL4.3 variant; test: microbe, parasite or virus in culture; assay type: cell-based; details: Human immunodeficiency virus 1, MT4, read-out: IC50 MT-4 CXCL-12 res.
[8] = system: HIV-1 X4 UG270 clinical isolate (clade D); test: HIV-1 UG270 infection of PBMCs, p24; assay type: cell-based; details: Human immunodeficiency virus 1; PBMC, average 2 donors
NL4.3 281F12 res. = test: microbe, parasite or virus in culture; assay type: cell-based, HIV-1; details: Human immunodeficiency virus 1, PBMC, read-out: IC50 PBMC NL4.3 281F12 res. n = 2
NL4.3 3F11 res = test: microbe, parasite or virus in culture; assay type: cell-based, HIV-1; details: Human immunodeficiency virus 1, TZM-bl, read-out: IC50 TZM-bl X4 NL4.3 3F11 res n = 3
X4 HIV-1 NL4.3 WT = test: TZM-bl luciferase assay, NL4.3 WT; assay type: cell-based; details: Human immunodeficiency virus 1, TZM-bl, read-out: IC50 TZM-bl X4 NL4.3 WT n = 4
HUT-78/HIV-1 NL4.3 = test: HIV-1-mediated cell-cell fusion, HUT-78/NL4.3 with SupT1 cells
HUT-78/HIV1 IIIb = test: HIV-1-mediated cell-cell fusion, HUT-78/IIIb with SupT1 cells; details: Human immunodeficiency virus 1, IIIB, read-out: IC50 syncytia formation SupT1 + HUT-78/IIIb n = 3
NL4.3 3F11 res. = test: microbe, parasite or virus in culture; assay type: cell-based, HIV-1; details: Human immunodeficiency virus 1, PBMC, read-out: IC50 PBMC NL4.3 3F11 res. n = 2
HIV-1 NL4.3 (X4) = test: HIV-1 NL4.3 infection of U87 cells; details: Human immunodeficiency virus 1, U-87 MG, read-out: IC50 U87 + NL 4.3 (X4) n = 3
[9] = system: dual-tropic (R5/X4) HIV-2 ROD strain; test: microbe, parasite or virus in culture; details: Human immunodeficiency virus 2, MT4, read-out: IC50 MT-4 HIV-2 ROD R5/X4 n = 3
HIV-1 X4 NL4.3 strain = test: HIV-1 NL4.3 infection of PHA-stimulated PBMCs, p24 Ag ELISA; assay type: cell-based
NL4.3 281F12 res = test: microbe, parasite or virus in culture; assay type: cell-based, HIV-1; details: Human immunodeficiency virus 1, TZM-bl, read-out: IC50 TZM-bl X4 NL4.3 281F12 res n = 3
[10] = system: CXCR4-using (X4) HIV-1 clone NL4.3; test: microbe, parasite or virus in culture; assay type: cell-based

c1cc(CN2CCCNCCNCCCNCC2)ccc1CN1CCCNCCNCCCNCC1 [AMD3100, plerixafor] gave an IC50 [1] of 26 nM, an IC50 [2] of 10 nM and an IC90 [2] of 24 nM. For the same compound, the IC50 [3] was 22 nM, the IC90 [3] was 47 nM and the IC50 ([4]; Human immunodeficiency virus 1, MT4, read-out: IC50 MT-4 281F12 res.) was 399 nM. For the same compound, the IC50 ([4]; Human immunodeficiency virus 1, MT4, read-out: IC50 against HIV-1 NL4.3 281F12res virus) was 400 nM and 0.317 µg/mL, the IC50 [5] was 3.9 nM and the IC50 (AMD3100 resistant virus) was 404 nM. The IC50 ([6]; Human immunodeficiency virus 1, MT4, read-out: IC50 MT-4 3F11 res.) was 18.5 nM, the IC50 ([6]; Human immunodeficiency virus 1, MT4, read-out: IC50 against HIV-1 NL4.3 3F11res virus) was 18 nM and 0.014 µg/mL and the IC50 [7] was 50.3 nM. It also gave an IC50 [8] of 16 nM, an IC90 [8] of 41 nM and an IC50 (NL4.3 281F12 res.) of 57 nM. For the same compound, the IC50 (NL4.3 3F11 res) was 915 nM, the IC50 (X4 HIV-1 NL4.3 WT) was 411 nM and the IC50 (HUT-78/HIV-1 NL4.3; Human immunodeficiency virus 1, HuT78, read-out: IC50 cell-cell fusion) was 1100 nM. For the same compound, the IC50 (HUT-78/HIV-1 NL4.3; Human immunodeficiency virus 1, read-out: IC50 syncytia formation SupT1 + HUT-78/NL4.3 n = 4) was 1120 nM, the IC50 (HUT-78/HIV1 IIIb) was 22000 nM and the IC50 (NL4.3 3F11 res.) was 20 nM. It also gave an IC50 (HIV-1 NL4.3 (X4)) of 10 nM, an IC50 [9] of 21.1 nM and an IC50 (HIV-1 X4 NL4.3 strain; Human immunodeficiency virus 1, PBMC, read-out: IC50 PBMC + NL 4.3 (X4) n = 3, Table 8.1.1) of 4.5 nM. The IC50 (HIV-1 X4 NL4.3 strain; Human immunodeficiency virus 1, PBMC, read-out: IC50 PBMC NL4.3 WT n = 10, Table 8.3) was 4.5 nM, the IC50 (HIV-1 X4 NL4.3 strain; Human immunodeficiency virus 1, PBMC, read-out: IC50 PBMC NL4.3 X4 n = 10, Table 8.1.2) was 3.3 nM and the IC50 (HIV-1 X4 NL4.3 strain; Human immunodeficiency virus 1, PBMC, read-out: IC50 HIV-1 NL4.3 in PBMC) was 3.3 nM. For the same compound, the IC90 (HIV-1 X4 NL4.3 strain; Human immunodeficiency virus 1, PBMC, average 2 donors) was 42 nM, the IC50 (HIV-1 X4 NL4.3 strain; Human immunodeficiency virus 1, PBMC, average 2 donors, read-out: IC50 NL4.3 X4) was 13 nM and the IC50 (NL4.3 281F12 res) was 4920 nM. The IC50 ([10]; Human immunodeficiency virus 1, MT4, read-out: IC50 MT-4 + NL 4.3 (X4) n = 3) was 4.75 nM, the IC50 ([10]; Human immunodeficiency virus 1, MT4, read-out: IC50 MT-4 NL4.3 X4 n = 3) was 4.28 nM and the IC50 ([10]; Human immunodeficiency virus 1, MT4, read-out: IC50 MT-4 NL4.3 wt) was 4.28 nM. It also gave an IC50 ([10]; Human immunodeficiency virus 1, MT4, read-out: IC50 X4 NL4.3 strain in MT-4 cells) of 6.26 nM.
